From paper PMC11621109, “Increasing sustainability and reproducibility of in vitro toxicology applications: serum-free cultivation of HepG2 cells” (Frontiers in Toxicology, 2024)
*1 amine or outer side, *2 acyl side, *3 side chain or, on linkers, in order; H or OH if unused. Where a SMILES comes first, the peptide text is derived from it. Bridges are numbered along the chain shown (N, C = ends). Roman numbers before positions name the chains, in order. [ ]: non-standard residue; d: D form. Actinocin(9to1) = Cc1c2oc3c(C)ccc(C(=O)[*:1])c3nc-2c(C(=O)[*:2])c(N)c1=O; NMeV = CN[C@H](C(=O)O)C(C)C; Sar = CNCC(=O)O

Legend:
Type in all cases: cell-based, human
[1] = tested on: GSH content of HepG2 cells; assay: GSH-Glo glutathione assay (oxidative stress); settings: 24 h
Procedure: To assess oxidative stress in cells in response to compound treatment, the GSH-Glo™ Glutathione Assay from Promega was used according to manufacturer’s instructions (V6912). HepG2 cells cultivated in standard medium containing FBS, Advanced DMEM/F12 or TCM® Serum Replacement were seeded in 384-well plates, incubated for 24 h, and subsequently treated with the MIP-DILI reference compounds, negative controls, or internal controls in a three-fold dilution series performed in triplicates using the Tecan 300e Dispenser ([Dragovic et al., 2016]). Treatment was performed for 24 h.
Assay reagents and plates were first equilibrated to room temperature. GSH-Glo™ Reagent 1x was obtained by diluting Luciferin-NT substrate and Glutathione S-Transferase 1:100 in GSH-Glo™ Reaction Buffer. Luciferin Detection reagent was dissolved in Reconstitution Buffer with Esterase.
The medium was aspirated, GSH-Glo™ Reagent 1x was added to the cells and plates were shaken for 2 min and subsequently incubated for 30 min at room temperature protected from light. Afterwards, reconstituted Luciferin Detection Reagent was added, and cells were again shaken for 2 min before incubation for 15 min at room temperature in the dark. Luminescence was measured using the Varioskan Plate Reader from Thermo Fisher.

LC3B (autophagy marker) = assay: Cellular fingerprint assay (Luminex): LC3B; settings: 24 h
Procedure: (§1) To measure intracellular drug response markers, HepG2 cells cultivated in standard medium containing FBS, Advanced DMEM/F12 or TCM® Serum Replacement were seeded in 384-well plates and incubated for 24 h. After incubation, cells were treated with selected MIP-DILI compounds or negative controls in a three-fold dilution series performed in triplicates using the Tecan 300e Dispenser ([Dragovic et al., 2016]). Additionally, cells were treated with assay specific control substances (see Supplementary Table S2). Treatment was performed for 24 h. After treatment, media was carefully aspirated und cells were lysed by adding 40 µL lysis buffer (Supplementary Table S3) to each well. The plates were incubated for 30 min at 4°C and either stored at −80°C or used immediately.
(§2) Intracellular drug response markers were assessed using the Luminex technology. Color-coded beads from NMI specific for one analyte each were used to qualify and quantify p-serin 10 of Histon H3 (cell division marker), LC3B (autophagy marker), PARP (cell death/apoptosis marker), HSP70 (stress response marker), p-serin 2/5 of RNA-Polymerase II (protein transcription marker), p-serin 422 of EIF4B (protein synthesis marker) and HIF1-alpha (oxidative stress marker).
(§3) For hybridization, 25 μL cell lysate of each sample was transferred to a fresh 384-well plate. […]

[2] = tested on: PARP (cell death/apoptosis marker); assay: Cellular fingerprint assay (Luminex): PARP; settings: 24 h
Procedure: as §1, §2
(§4) For hybridization, 25 μL cell lysate of each sample was transferred to a fresh 384-well plate. 25 μL prepared bead mix and 25 µL assay buffer were added and the plate was sealed. Plates were incubated for 16–20 h at 4°C and 600 rpm. The TS Pro thermal plate shaker from CellMedia was used for all incubation steps.
(§5) After incubation the plates were washed and successively incubated with 15 µL detection antibody (1 h, RT, 650 rpm) and 15 µL streptavidin, R-phycoerythrin conjugate (SAPE; 45 min, RT, 650 rpm). After each step, the plates were washed three times with wash buffer. Before measurement, 90 µL assay buffer was added to each well and the plates were incubated for 10 min at RT and 700 rpm. Measurement was performed using the Luminex™ FlexMAP 3D from ThermoFisher.

[3] = tested on: HIF1-alpha (oxidative stress marker); assay: Cellular fingerprint assay (Luminex): HIF-1-alpha; settings: 24 h
Procedure: as §1, §2, §4, §5

[4] = tested on: p-serin 2/5 of RNA-Polymerase II; assay: Cellular fingerprint assay (Luminex): RNA Pol II; settings: 24 h
Procedure: as §1, §2, §4, §5

HepG2 cells [5] = assay: Cellular fingerprint assay: overall marker response / cell death; settings: 24 h
Procedure: as §1, §2, §3

HepG2 cells [6] = assay: Mitochondrial toxicity assay (Glucose/Galactose assay); settings: HepG2 cultured in Advanced DMEM/F12; 2 h treatment
Procedure: To assess mitochondrial toxicity, the Glucose/Galactose Assay was used. HepG2 cells cultivated in standard medium containing FBS, Advanced DMEM/F12 or TCM® Serum Replacement were seeded in 384-well plates and incubated for 48 h. Cells were washed once, and subsequently switched to DMEM (ThermoFisher, 11966025) supplemented with sodium pyruvate, HEPES and either 25 mM D-glucose or 10 mM D-galactose without FBS to avoid residual glucose. Cells were pre-incubated for 4 h before treatment with the MIP-DILI reference compounds, negative controls or internal controls ([Dragovic et al., 2016]). Treatment was performed in a three-fold dilution series in triplicates using the Tecan 300e Dispenser. Cells were treated for 2 h, and the read-out was performed by measuring cell viability using the CellTiter-Glo® reagent as described previously. IC50 values were obtained from dose response curves in GraphPad Prism using a log(inhibitor) vs. response model (variable slope, four parameters, bottom constraint = 0). Mitochondrial toxicity was assessed by calculating the IC50Glc/IC50Gal ratio and the threshold for risk for mitochondrial toxicity was set at >2.

[7] = tested on: HSP70 (stress response marker); assay: Cellular fingerprint assay (Luminex): HSP70; settings: 24 h
Procedure: as §1, §2, §4, §5

p-serin 422 of EIF4B = assay: Cellular fingerprint assay (Luminex): EIF4B; settings: 24 h; all culture conditions (amiodarone: highest concentration)
Procedure: as §1, §2, §3

[8] = comparable results for all culture conditions
[9] = highest concentration, across all media
[10] = all culture conditions (amiodarone: highest concentration)

Structure (SMILES): O=C1CC2(CCCC2)CC(=O)N1CCCCN1CCN(c2ncccn2)CC1 [Buspirone]
- changes in GSH [1, 8]: viability dependent changes in GSH

Structure (SMILES): CO/C1=C\C(C)=C\[C@@H](C)[C@@H](O)[C@@H](C)C/C(C)=C/C=C/[C@H](OC)[C@@H]([C@@H](C)[C@@H](O)[C@H](C)[C@@]2(O)C[C@@H](O)[C@H](C)[C@@H](C(C)C)O2)OC1=O [bafilomycin, Bafilomycin A1]
- LC3B levels (LC3B (autophagy marker); similar response in all culture conditions): strong increase in LC3B levels

Structure (SMILES): CC(=O)N(O)CCCCCNC(=O)CCC(=O)N(O)CCCCCNC(=O)CCC(=O)N(O)CCCCCN [deferoxamine, Deferoxamin Mesylat]
- PARP level ([2]; serum-free media): not observed
- PARP level ([2]; standard medium): increased PARP level
- HIF-1-alpha levels ([3]; Advanced DMEM/F12, treated vs. untreated cells): no significant increase in HIF-1-alpha levels
- HIF-1-alpha levels ([3]; TCM): elevated HIF-1-alpha levels
- HIF-1-alpha levels ([3]; standard medium): elevated HIF-1-alpha levels

Structure (SMILES): CN(C)C(=N)N=C(N)N [Metformin]
- RNA Pol II levels ([4]; highest concentration tested, Advanced DMEM/F12): slight decrease
- elevation of intracellular drug response markers (HepG2 cells [5]; all seven markers): did not result in elevated markers

Structure (SMILES): C1CCC(C(CC2CCCCN2)C2CCCCC2)CC1 (stereo not shown) [Perhexiline]
- changes in GSH [1, 8]: viability dependent changes in GSH
- mitochondrial toxicity call (IC50Glc/IC50Gal fold change vs two-fold threshold) (HepG2 cells [6]): identified as a potential mitochondrial toxin
- PARP level ([2]; Advanced DMEM/F12 only): significant increase in PARP
- concentrations at which cell death occurred (HepG2 cells [5]; multiple markers drastically reduced or below detection limit): ≥ 16.7 µM

Structure (SMILES): CCCCc1oc2ccccc2c1C(=O)c1cc(I)c(OCCN(CC)CC)c(I)c1 [Amiodarone]
- LC3B levels (LC3B (autophagy marker); second highest concentration, similar in all conditions): elevated LC3B levels
- HSP70 levels [7, 9]: decrease
- PARP levels [2, 9]: elevated PARP levels
- RNA Pol II levels [4, 10]: decrease
- EIF4B levels (p-serin 422 of EIF4B): decrease

Structure (SMILES): CCc1nn(CCCN2CCN(c3cccc(Cl)c3)CC2)c(=O)n1CCOc1ccccc1 [Nefazodone]
- changes in GSH [1, 8]: viability dependent changes in GSH

Structure (SMILES): Cc1c2oc3c(C)ccc(C(=O)N[C@@H]4C(=O)N[C@H](C(C)C)C(=O)N5CCC[C@H]5C(=O)N(C)CC(=O)N(C)[C@@H](C(C)C)C(=O)O[C@@H]4C)c3nc-2c(C(=O)N[C@@H]2C(=O)N[C@H](C(C)C)C(=O)N3CCC[C@H]3C(=O)N(C)CC(=O)N(C)[C@@H](C(C)C)C(=O)O[C@@H]2C)c(N)c1=O [actinomycin D, Actinomycin D] (I: T[dV]P[Sar][NMeV] / II: T[dV]P[Sar][NMeV]; ester I:1-I:C, II:1-II:C; linker I:N-II:N via Actinocin(9to1))
- fold change (response, Figure 7C) ([2]; Advanced DMEM/F12): 11.3
- fold change (response, Figure 7C) ([2]; TCM): 6.6
- fold change (response, Figure 7C) ([2]; standard medium): 3.1
- RNA Pol II levels [4, 10]: significant decrease
- EIF4B levels (p-serin 422 of EIF4B): significant decrease

Structure (SMILES): O=C(O)Cc1ccccc1Nc1c(Cl)cccc1Cl [Diclofenac]
- changes in GSH [1, 8]: viability dependent changes in GSH

Structure (SMILES): CCCCS(=N)(=O)CCC(N)C(=O)O (stereo not shown) [Buthionine sulfoximine (BSO), Buthionine sulfoximine]
- changes in GSH ([1]; independently from viability, less profound in serum-free media): strong decrease in GSH

Structure (SMILES): CC(=O)O[C@H]1C(=O)[C@@]2(C)[C@H]([C@H](OC(=O)c3ccccc3)[C@]3(O)C[C@H](OC(=O)[C@H](O)[C@@H](NC(=O)c4ccccc4)c4ccccc4)C(C)=C1C3(C)C)[C@]1(OC(C)=O)CO[C@@H]1C[C@@H]2O [Paclitaxel]
- changes in GSH ([1]; at high concentrations, increase significantly lower in both serum-free media): increase in GSH

Structure (SMILES): C/C=C(/C)C(=O)O[C@H]1C(C)=C2[C@H]([C@@H]1OC(=O)CCCCCCC)[C@@](C)(OC(C)=O)C[C@H](OC(=O)CCC)[C@@]1(O)[C@H]2OC(=O)[C@@]1(C)O [Thapsigargin]
- changes in GSH ([1]; at low concentrations, increase significantly lower in both serum-free media): increase in GSH

Structure (SMILES): COC1=C2C[C@@H](C)C[C@H](OC)[C@H](O)[C@@H](C)/C=C(\C)[C@H](OC(N)=O)[C@@H](OC)/C=C\C=C(/C)C(=O)NC(=CC1=O)C2=O [geldanamycin, Geldanamycin]
- fold change (response, Figure 7B) ([7]; Advanced DMEM/F12): 20.6
- fold change (response, Figure 7B) ([7]; TCM): 8.7
- fold change (response, Figure 7B) ([7]; standard medium): 7.4
